Measured values from patent US20040138302A1, “Antifungal antibiotics” (Wyeth Holdings Corporation, priority 2002, published 2004).
Values after ≈ are worked out from the molar mass of the structure shown. Where two headings read alike, the source gives them in different places. One block for each molecule: values may come before it.

What was measured:
Candida tropicalis = test: Broth microdilution antifungal MIC (NCCLS); assay type: cell-based; conditions: RPMI-1640, 35° C., 24-48 hours
Experimental: (§1) The antifungal activity of Hygroscopene A is determined by a broth microdilution method as recommended by the National Committee for Clinical Laboratory Standard (NCCLS) (1, 2). Sterile, disposable, multiwell plates (96 U-shaped wells) containing serial dilutions of Hygroscopene A and a control drug (Amphotericin B) are prepared in a 100 μl volume with RPMI-1640 broth supplemented with 0.2% sodium bicarbonate and […] [3-(N-morpholino) propanesulfonic acid] buffer. RPMI-1640 is a completely synthetic medium that supports the growth of most fungi. Antimicrobial agent concentrations ranged from 0.06-64 μg/ml. Five colonies from 24-hour old yeast culture or 48-hour old filamentous fungi culture were suspended in 0.85% saline. The suspensions are diluted in RPMI-1640 broth and inoculated in to plates (100 μl/well) containing antimicrobial agents. The final inocula of yeast or fungi are 0.5-2.5×10^3 CFU/ml and 0.4×10^4-5×10^4 CFU/ml respectively. Plates are incubated at 35° C. for 24-72 hours in ambient air. Hygroscopene A is tested against a panel of pathogenic yeast and filamentous fungi, which consisted of Candida sp. and Aspergillus sp. The yeast and fungal strains tested are clinical isolates or were purchased from American Type Culture Collection (ATCC) (Rockville, Md.). […] The MIC values for yeast are determined after 24-48 hours of incubation. For filamentous fungi, the MIC is determined after 72 hours of incubation.

Candida albicans = test: Broth microdilution antifungal MIC (NCCLS); assay type: cell-based; conditions: RPMI-1640, 35° C., 24-48 hours
Experimental: as §1

Candida rugosa = test: Broth microdilution antifungal MIC (NCCLS); assay type: cell-based; conditions: Candida rugosa 94-10, RPMI-1640, 35° C., 24-48 hours
Experimental: as §1

Candida lustitaniae = test: Broth microdilution antifungal MIC (NCCLS); assay type: cell-based; conditions: Candida lustitaniae 94-3, RPMI-1640, 35° C., 24-48 hours
Experimental: as §1

Candida krussii = test: Broth microdilution antifungal MIC (NCCLS); assay type: cell-based; conditions: Candida krussii 94-2, RPMI-1640, 35° C., 24-48 hours
Experimental: as §1

Candida parapsilosis = test: Broth microdilution antifungal MIC (NCCLS); assay type: cell-based; conditions: RPMI-1640, 35° C., 24-48 hours
Experimental: as §1

Candida pseudotropicalis = test: Broth microdilution antifungal MIC (NCCLS); assay type: cell-based; conditions: Candida pseudotropicalis ATCC 28838, RPMI-1640, 35° C., 24-48 hours
Experimental: as §1

Aspergillus niger = test: Broth microdilution antifungal MIC (NCCLS); assay type: cell-based; conditions: Aspergillus niger ATCC 26933, RPMI-1640, 35° C., 72 hours
Experimental: as §1

[1] = Solubility (physico-chemical properties); assay type: physicochemical; conditions: solvents MeOH, EtOH, DMSO
Aspergillus fumigatus = test: Broth microdilution antifungal MIC (NCCLS); assay type: cell-based; conditions: Aspergillus fumigatus S-430; RPMI-1640, 35° C., 72 hours
Experimental: as §1

MIC (Candida tropicalis; Candida tropicalis 94-13): 0.25 mg/L (≈ 0.271 µM) | MIC (Candida tropicalis; Candida tropicalis 94-14): 0.25 mg/L (≈ 0.271 µM) | MIC (Candida albicans; Candida albicans 1063): 0.125 mg/L (≈ 0.135 µM) | MIC (Candida albicans; Candida albicans 1117): 0.125 mg/L (≈ 0.135 µM) | MIC (Candida albicans; Candida albicans ATCC 90028): 0.25 mg/L (≈ 0.271 µM) | MIC (Candida rugosa): 0.50 mg/L (≈ 0.541 µM) | MIC (Candida lustitaniae): 0.125 mg/L (≈ 0.135 µM) | MIC (Candida krussii): 0.50 mg/L (≈ 0.541 µM) | MIC (Candida parapsilosis; Candida parapsilosis 94-8): 0.25 mg/L (≈ 0.271 µM) | MIC (Candida parapsilosis; Candida parapsilosis 94-9): 0.25 mg/L (≈ 0.271 µM) | MIC (Candida parapsilosis; Candida parapsilosis ATCC 90018): 0.25 mg/L (≈ 0.271 µM) | MIC (Candida pseudotropicalis): 0.25 mg/L (≈ 0.271 µM) | MIC (Aspergillus niger): 0.50 mg/L (≈ 0.541 µM)
Compound: C[C@@H]1[C@H](O)[C@@H](C)/C=C/C=C/C=C/C=C/C=C/C=C/C=C/[C@H](O[C@@H]2O[C@H](C)[C@@H](O)[C@H](N)[C@@H]2O)C[C@@H]2O[C@](O)(C[C@@H](O)C[C@@H](O)[C@H](O)CC[C@@H](O)C[C@@H](O)CC(=O)O[C@H]1C)C[C@H](O)[C@H]2C(=O)O [Amphotericin B, reference compound]

Solubility [1]: Soluble in MeOH, EtOH, DMSO | MIC (Candida tropicalis; Candida tropicalis 94-13, read-out: MIC): 1 mg/L (≈ 0.821 µM) | MIC (Candida tropicalis; Candida tropicalis 94-14): 1.0 mg/L (≈ 0.821 µM) | MIC (Candida albicans; Candida albicans, ATCC90028, Candida albicans ATCC 90028, read-out: MIC): 2 mg/L (≈ 1.64 µM) | MIC (Candida albicans; Candida albicans, Candida albicans 1063, read-out: MIC): 2 mg/L (≈ 1.64 µM) | MIC (Candida albicans; Candida albicans, Candida albicans 1117, read-out: MIC): 1 mg/L (≈ 0.821 µM) | MIC (Candida rugosa; Diutina rugosa, read-out: MIC): 1 mg/L (≈ 0.821 µM) | MIC (Candida lustitaniae; read-out: MIC): 1 mg/L (≈ 0.821 µM) | MIC (Aspergillus fumigatus): 2 mg/L (≈ 1.64 µM) | MIC (Candida krussii; read-out: MIC): 1 mg/L (≈ 0.821 µM) | MIC (Candida parapsilosis; Candida parapsilosis 94-9): 2.0 mg/L (≈ 1.64 µM) | MIC (Candida parapsilosis; Lodderomyces parapsilosis, ATCC90018, Candida parapsilosis ATCC 90018, read-out: MIC): 2 mg/L (≈ 1.64 µM) | MIC (Candida parapsilosis; Lodderomyces parapsilosis, Candida parapsilosis 94-8, read-out: MIC): 2 mg/L (≈ 1.64 µM) | MIC (Candida pseudotropicalis; Kluyveromyces marxianus, ATCC28838, read-out: MIC): 2 mg/L (≈ 1.64 µM) | MIC (Aspergillus niger; ATCC26933, read-out: MIC): 8 mg/L (≈ 6.57 µM)
Compound: C\C(=C/C=C/C=C/CC/C=C/C(C)C(O)C(C)C(O)/C=C/C=C/C=C/C=C/C=C/C=C/CC(OS(=O)(=O)O)C(C)C(=O)CC(O)CC(O)/C=C/CC(O)CC(O)/C=C/CC(O)CC(O)CC(O)/C=C/CC(O)CC(O)CCCNC(=N)N)C(=O)O (stereo not drawn) [Hygroscopene A]

Solubility [1]: Soluble in MeOH, EtOH, DMSO
Compound: C\C(=C/C=C/C=C/CC/C=C/C(C)C(O)C(C)C(O)/C=C/C=C/C=C/C=C/C=C/C=C/CC(OS(=O)(=O)O)C(C)C(=O)CC(O)CC(O)/C=C/CC(O)CC(O)/C=C/CC(O)CC(O)CC(O)/C=C/CC(O)CC(O)CCCN)C(=O)O (stereo not drawn) [Hygroscopene B]

Solubility [1]: Soluble in MeOH, EtOH, DMSO
Compound: C\C(=C/C=C/C=C/CC/C=C/C(C)C(O)C(C)C(O)/C=C/C=C/C=C/C=C/C=C/C=C/CC(O)C(C)C(=O)CC(O)CC(O)/C=C/CC(O)CC(O)/C=C/CC(O)CC(O)CC(O)/C=C/CC(O)CC(O)CCCN)C(=O)O (stereo not drawn) [Hygroscopene C]
